Test results taken from the NIST ThermoML archive (doi:10.1016/j.jct.2015.09.002).

Assay: xn = mol fraction of the nth substance listed
Conditions: 93.2 kPa, Liquid, Vibrating tube method

CCCNCCC [dipropylamine] + CC#N
mass density [kg/m3]
Conditions	293.15 K	298.15 K	303.15 K	308.15 K
x2 = 0	738.18	733.64	729.07	724.48
x2 = 0.0106	738.6	734.04	729.47	724.87
x2 = 0.0215	738.86	734.31	729.71	725.09
x2 = 0.0323	739.1	734.53	729.92	725.29
x2 = 0.0406	739.28	734.72	730.09	725.48
x2 = 0.0507	739.51	734.94	730.32	725.71
x2 = 0.0605	739.75	735.16	730.53	725.91
x2 = 0.0684	739.93	735.34	730.7	726.08
x2 = 0.0801	740.21	735.61	730.96	726.32
x2 = 0.0926	740.51	735.91	731.26	726.61
x2 = 0.101	740.71	736.11	731.45	726.79
x2 = 0.1493	741.88	737.23	732.56	727.89
x2 = 0.2009	743.16	738.47	733.79	729.06
x2 = 0.2547	744.47	739.78	735.06	730.34
x2 = 0.3001	745.65	740.94	736.2	731.45
x2 = 0.3514	747.06	742.32	737.55	732.77
x2 = 0.3995	748.45	743.68	738.88	734.07
x2 = 0.4556	750.19	745.39	740.57	735.71
x2 = 0.5008	751.71	746.88	742.02	737.15
x2 = 0.551	753.52	748.66	743.77	738.86
x2 = 0.6037	755.61	750.71	745.77	740.81
x2 = 0.6481	757.56	752.63	747.66	742.67
x2 = 0.6992	760.02	755.04	750.02	744.98
x2 = 0.7495	762.68	757.65	752.58	747.48
x2 = 0.7997	765.7	760.61	755.49	750.33
x2 = 0.8496	769.02	763.85	758.66	753.43
x2 = 0.9002	772.87	767.63	762.35	757.05
x2 = 0.9092	773.6	768.35	763.04	757.76
x2 = 0.9194	774.47	769.22	763.9	758.59
x2 = 0.9298	775.37	770.09	764.79	759.45
x2 = 0.9492	777.14	771.83	766.49	761.13
x2 = 0.9697	779.11	773.75	768.36	762.97
x2 = 0.9892	781.03	775.63	770.22	764.78

CC(C)(C)N [2-methyl-2-propanamine] + CC#N
mass density [kg/m3]
Conditions	293.15 K	298.15 K	303.15 K	308.15 K
x2 = 0	692.06	686.65	681.18	675.66
x2 = 0.009	692.79	687.38	681.92	676.4
x2 = 0.0205	693.46	688.06	682.61	677.1
x2 = 0.0313	694.05	688.66	683.22	677.72
x2 = 0.0421	694.67	689.29	683.85	678.36
x2 = 0.0536	695.33	689.95	684.53	679.04
x2 = 0.0625	695.85	690.48	685.06	679.59
x2 = 0.0694	696.27	690.86	685.44	679.97
x2 = 0.0801	696.87	691.5	686.09	680.61
x2 = 0.0874	697.28	691.92	686.51	681.05
x2 = 0.1006	698.07	692.74	687.34	681.89
x2 = 0.1489	701.01	695.71	690.34	684.92
x2 = 0.2023	704.54	699.21	693.83	688.43
x2 = 0.2493	707.7	702.41	697.06	691.72
x2 = 0.3021	711.23	705.97	700.63	695.28
x2 = 0.3487	714.58	709.33	704	698.63
x2 = 0.3998	718.28	713.06	707.73	702.38
x2 = 0.4489	721.98	716.77	711.44	706.12
x2 = 0.501	726.15	720.91	715.64	710.33
x2 = 0.5485	730.26	725.04	719.77	714.47
x2 = 0.6009	735.01	729.79	724.53	719.22
x2 = 0.6494	739.58	734.35	729.08	723.75
x2 = 0.6932	743.94	738.74	733.46	728.14
x2 = 0.7494	749.81	744.57	739.28	733.95
x2 = 0.8001	755.58	750.29	744.99	739.64
x2 = 0.8497	761.5	756.2	750.87	745.51
x2 = 0.8984	767.7	762.38	757.02	751.64
x2 = 0.9093	769.13	763.81	758.46	753.06
x2 = 0.9202	770.57	765.25	759.88	754.48
x2 = 0.9292	771.83	766.5	761.11	755.72
x2 = 0.9401	773.34	768	762.61	757.2
x2 = 0.9501	774.73	769.38	763.99	758.56
x2 = 0.9599	776.15	770.78	765.38	759.96
x2 = 0.9699	777.57	772.2	766.79	761.36
x2 = 0.9795	778.96	773.59	768.17	762.72
x2 = 0.9892	780.39	775.01	769.59	764.14

CCCCNCCCC [dibutylamine] + CC#N
mass density [kg/m3]
Conditions	293.15 K	298.15 K	303.15 K	308.15 K
x2 = 0	759.7	755.61	751.5	747.38
x2 = 0.0695	760.49	756.33	752.17	748
x2 = 0.081	760.6	756.44	752.27	748.08
x2 = 0.1023	760.85	756.68	752.5	748.3
x2 = 0.1527	761.32	757.12	752.9	748.66
x2 = 0.2029	761.82	757.58	753.32	749.05
x2 = 0.2499	762.19	757.95	753.65	749.34
x2 = 0.2996	762.67	758.39	754.06	749.71
x2 = 0.3542	763.23	758.88	754.51	750.12
x2 = 0.3978	763.73	759.35	754.95	750.52
x2 = 0.47	764.62	760.17	755.7	751.19
x2 = 0.4987	764.98	760.52	756.02	751.49
x2 = 0.5498	765.74	761.23	756.67	752.09
x2 = 0.6001	766.63	762.05	757.43	752.78
x2 = 0.6499	767.62	762.97	758.29	753.59
x2 = 0.6991	768.71	763.99	759.24	754.46
x2 = 0.7496	770.07	765.28	760.44	755.59
x2 = 0.8	771.64	766.75	761.82	756.87
x2 = 0.8494	773.46	768.5	763.47	758.42
x2 = 0.8994	775.72	770.63	765.48	760.32
x2 = 0.9293	777.27	772.08	766.87	761.62
x2 = 0.9394	777.86	772.65	767.41	762.14
x2 = 0.9498	778.5	773.27	768	762.7
x2 = 0.9596	779.13	773.86	768.55	763.23
x2 = 0.9699	779.82	774.53	769.19	763.83
x2 = 0.9799	780.54	775.22	769.85	764.46
x2 = 0.9897	781.26	775.91	770.51	765.09
